Experimental data published in patent US20230085307A1, “PYRIDAZINONE COMPOUND AND HERBICIDE” (NISSAN CHEMICAL CORPORATION, priority 2019, published 2023).

Assays:
[1] = tested on: blackgrass; assay: Test Example 5: herbicidal effect by foliage application, plastic box (Table 20, symbol J); type: in vivo, blackgrass (Alopecurus myosuroides); conditions: foliage application, 320 g/ha, three weeks after application
Summary of the method: (§1)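 Post-emergence foliar test in sterilized diluvial soil. Compound applied as water-diluted emulsion at a predetermined rate to 14-day-old plants; evaluation at three weeks.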

[2] = tested on: false cleavers; assay: Test Example 5: herbicidal effect by foliage application, plastic box (Table 20, symbol Q); type: in vivo, false cleavers (Galium spurium); conditions: foliage application, 320 g/ha, three weeks after application
Summary of the method: as §1

[3] = tested on: Japanese bulrush; assay: Test Example 1: herbicidal activity, application before weed generation under submerged conditions (Table 16, symbol B); type: in vivo, Japanese bulrush (Schoenoplectus juncoides); conditions: 320 g/ha applied herbicide
Summary of the method: (§2)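 Submerged Wagner pots (alluvial soil, 4 cm water) sown with weed seeds and planted with 2.5-leaf rice seedlings; emulsifiable concentrate diluted in water applied to water surface on sowing day. Held in greenhouse at 25-30 °C; injury scored 0-5 by herbicidal rate after three weeks.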

[4] = tested on: Italian ryegrass; assay: Test Example 5: herbicidal effect by foliage application, plastic box (Table 20, symbol K); type: in vivo, Italian ryegrass (Lolium multiflorum); conditions: foliage application, 320 g/ha, three weeks after application
Summary of the method: as §1

[5] = tested on: oval-leafed pondweed; assay: Test Example 1: herbicidal activity, application before weed generation under submerged conditions (Table 16, symbol C); type: in vivo, oval-leafed pondweed (Monochoria vaginalis); conditions: 320 g/ha applied herbicide
Summary of the method: as §2

[6] = tested on: wild oat; assay: Test Example 5: herbicidal effect by foliage application, plastic box (Table 20, symbol I); type: in vivo, wild oat (Avena fatua); conditions: foliage application, 320 g/ha, three weeks after application
Summary of the method: as §1

[7] = tested on: southern crabgrass; assay: Test Example 5: herbicidal effect by foliage application, plastic box (Table 20, symbol F); type: in vivo, southern crabgrass (Digitaria ciliaris); conditions: foliage application, 320 g/ha, three weeks after application
Summary of the method: as §1

[8] = tested on: chickweed; assay: Test Example 5: herbicidal effect by foliage application, plastic box (Table 20, symbol P); type: in vivo, common chickweed (Stellaria media); conditions: foliage application, 320 g/ha, three weeks after application
Summary of the method: as §1

[9] = tested on: velvetleaf; assay: Test Example 5: herbicidal effect by foliage application, plastic box (Table 20, symbol M); type: in vivo, velvetleaf (Abutilon theophrasti); conditions: foliage application, 320 g/ha, three weeks after application
Summary of the method: as §1

[10] = tested on: blackgrass; assay: Test Example 4: herbicidal effect by soil treatment (Table 19, symbol J); type: in vivo, blackgrass (Alopecurus myosuroides); conditions: amount of applied herbicide 320 g/ha
Summary of the method: (§3)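 Emulsion of test compound, water-diluted to predetermined amount, sprayed on soil after sowing (seed depth ~1.5 cm, sterilized diluvial soil). Greenhouse, 25–30° C. Effect graded at three weeks post-spray.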

[11] = tested on: lambsquarters; assay: Test Example 4: herbicidal effect by soil treatment (Table 19, symbol O); type: in vivo, lambsquarters (Chenopodium album); conditions: amount of applied herbicide 320 g/ha
Summary of the method: as §3

[12] = tested on: chickweed; assay: Test Example 4: herbicidal effect by soil treatment (Table 19, symbol P); type: in vivo, common chickweed (Stellaria media); conditions: amount of applied herbicide 320 g/ha
Summary of the method: as §3

[13] = tested on: Italian ryegrass; assay: Test Example 4: herbicidal effect by soil treatment (Table 19, symbol K); type: in vivo, Italian ryegrass (Lolium multiflorum); conditions: amount of applied herbicide 320 g/ha
Summary of the method: as §3

[14] = tested on: green foxtail; assay: Test Example 5: herbicidal effect by foliage application, plastic box (Table 20, symbol G); type: in vivo, green foxtail (Setaria viridis); conditions: foliage application, 320 g/ha, three weeks after application
Summary of the method: as §1

[15] = tested on: barnyard grass; assay: Test Example 4: herbicidal effect by soil treatment (Table 19, symbol H); type: in vivo, barnyard grass (Echinochloa crus-galli); conditions: amount of applied herbicide 320 g/ha
Summary of the method: as §3

[16] = tested on: barnyard grass; assay: Test Example 5: herbicidal effect by foliage application, plastic box (Table 20, symbol H); type: in vivo, barnyard grass (Echinochloa crus-galli); conditions: foliage application, 320 g/ha, three weeks after application
Summary of the method: as §1

[17] = tested on: green foxtail; assay: Test Example 4: herbicidal effect by soil treatment (Table 19, symbol G); type: in vivo, green foxtail (Setaria viridis); conditions: amount of applied herbicide 320 g/ha
Summary of the method: as §3

[18] = tested on: redroot pigweed; assay: Test Example 5: herbicidal effect by foliage application, plastic box (Table 20, symbol N); type: in vivo, redroot pigweed (Amaranthus retroflexus); conditions: foliage application, 320 g/ha, three weeks after application
Summary of the method: as §1

[19] = tested on: redroot pigweed; assay: Test Example 4: herbicidal effect by soil treatment (Table 19, symbol N); type: in vivo, redroot pigweed (Amaranthus retroflexus); conditions: amount of applied herbicide 320 g/ha
Summary of the method: as §3

[20] = tested on: wild oat; assay: Test Example 4: herbicidal effect by soil treatment (Table 19, symbol I); type: in vivo, wild oat (Avena fatua); conditions: amount of applied herbicide 320 g/ha
Summary of the method: as §3

[21] = tested on: lambsquarters; assay: Test Example 5: herbicidal effect by foliage application, plastic box (Table 20, symbol O); type: in vivo, lambsquarters (Chenopodium album); conditions: foliage application, 320 g/ha, three weeks after application
Summary of the method: as §1

[22] = tested on: late watergrass; assay: Test Example 1: herbicidal activity, application before weed generation under submerged conditions (Table 16, symbol A); type: in vivo, late watergrass (Echinochloa oryzicola); conditions: 320 g/ha applied herbicide
Summary of the method: as §2

[23] = tested on: velvetleaf; assay: Test Example 4: herbicidal effect by soil treatment (Table 19, symbol M); type: in vivo, velvetleaf (Abutilon theophrasti); conditions: amount of applied herbicide 320 g/ha
Summary of the method: as §3

[24] = tested on: persian speedwell; assay: Test Example 4: herbicidal effect by soil treatment (Table 19, symbol R); type: in vivo, Persian speedwell (Veronica persica); conditions: amount of applied herbicide 320 g/ha
Summary of the method: as §3

[25] = tested on: windgrass; assay: Test Example 5: herbicidal effect by foliage application, plastic box (Table 20, symbol L); type: in vivo, windgrass (Apera spica-venti); conditions: foliage application, 320 g/ha, three weeks after application
Summary of the method: as §1

[26] = tested on: windgrass; assay: Test Example 4: herbicidal effect by soil treatment (Table 19, symbol L); type: in vivo, windgrass (Apera spica-venti); conditions: amount of applied herbicide 320 g/ha
Summary of the method: as §3

[27] = tested on: southern crabgrass; assay: Test Example 4: herbicidal effect by soil treatment (Table 19, symbol F); type: in vivo, southern crabgrass (Digitaria ciliaris); conditions: amount of applied herbicide 320 g/ha
Summary of the method: as §3

[28] = tested on: Chinese sprangletop; assay: Test Example 3: herbicidal effect by foliage application, Wagner pot (Table 18, symbol D); type: in vivo, chinese sprangletop (Leptochloa chinensis); conditions: 320 g/ha
Summary of the method: (§4)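 Plants were sown in alluvial soil held under 0.1–0.5 cm standing water and grown 14 days in a greenhouse at 25–30 °C. An emulsifiable formulation, water-diluted to the set dose, was then sprayed onto the foliage, and effects were scored three weeks later using previously defined criteria.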

[29] = tested on: persian speedwell; assay: Test Example 5: herbicidal effect by foliage application, plastic box (Table 20, symbol R); type: in vivo, Persian speedwell (Veronica persica); conditions: foliage application, 320 g/ha, three weeks after application
Summary of the method: as §1

[30] = tested on: false cleavers; assay: Test Example 4: herbicidal effect by soil treatment (Table 19, symbol Q); type: in vivo, false cleavers (Galium spurium); conditions: amount of applied herbicide 320 g/ha
Summary of the method: as §3

[31] = tested on: barnyard grass; assay: Test Example 3: herbicidal effect by foliage application, Wagner pot (Table 18, symbol H); type: in vivo, barnyard grass (Echinochloa crus-galli); conditions: 320 g/ha
Summary of the method: as §4

[32] = tested on: rice flat sedge; assay: Test Example 3: herbicidal effect by foliage application, Wagner pot (Table 18, symbol E); type: in vivo, rice flat sedge (Cyperus iria); conditions: 320 g/ha
Summary of the method: as §4

Row | SMILES | herbicidal effect grade, J: blackgrass [1] | herbicidal effect grade, Q: false cleavers [2] | Herbicidal effect on B: Japanese bulrush (grade 0-5) [3] | herbicidal effect grade, K: Italian ryegrass [4] | Herbicidal effect on C: oval-leafed pondweed (grade 0-5) [5] | herbicidal effect grade, I: wild oat [6] | herbicidal effect grade, F: southern crabgrass [7] | herbicidal effect grade, P: chickweed [8] | herbicidal effect grade, M: velvetleaf [9] | herbicidal effect rating, J: blackgrass [10] | herbicidal effect rating, O: lambsquarters [11] | herbicidal effect rating, P: chickweed [12] | herbicidal effect rating, K: Italian ryegrass [13] | herbicidal effect grade, G: green foxtail [14] | herbicidal effect rating, H: barnyard grass [15] | herbicidal effect grade, H: barnyard grass [16] | herbicidal effect rating, G: green foxtail [17] | herbicidal effect grade, N: redroot pigweed [18] | herbicidal effect rating, N: redroot pigweed [19] | herbicidal effect rating, I: wild oat [20] | also measured
1 | CCCCCOc1ccc(-c2sc3ccccc3c2-c2c(OC(=O)CCC)c(C)nn(C)c2=O)cc1 [1-027] | 0 (Herbicidal rate of 5% or less (almost no effect)) | 3 (Herbicidal rate of 40% or more and less than 70%) | 2 (Herbicidal rate of 20% or more and less than 40%) | 0 (Herbicidal rate of 5% or less (almost no effect)) | 0 (Herbicidal rate of 5% or less (almost no effect)) | 0 (Herbicidal rate of 5% or less (almost no effect)) | 0 (Herbicidal rate of 5% or less (almost no effect)) | 5 (Herbicidal rate of 90% or more (almost completely withered)) | 3 (Herbicidal rate of 40% or more and less than 70%) | 0 (Herbicidal rate of 5% or less (almost no effect)) | 0 (Herbicidal rate of 5% or less (almost no effect)) | 2 (Herbicidal rate of 20% or more and less than 40%) | 0 (Herbicidal rate of 5% or less (almost no effect)) | 0 (Herbicidal rate of 5% or less (almost no effect)) | 0 (Herbicidal rate of 5% or less (almost no effect)) | 3 (Herbicidal rate of 40% or more and less than 70%) | 0 (Herbicidal rate of 5% or less (almost no effect)) | 5 (Herbicidal rate of 90% or more (almost completely withered)) | 0 (Herbicidal rate of 5% or less (almost no effect)) | 0 (Herbicidal rate of 5% or less (almost no effect)) | herbicidal effect grade, O: lambsquarters [21]: 3 (Herbicidal rate of 40% or more and less than 70%); Herbicidal effect on A: late watergrass (grade 0-5) [22]: 0 (Herbicidal rate of 5% or less (almost no effect)); herbicidal effect rating, M: velvetleaf [23]: 0 (Herbicidal rate of 5% or less (almost no effect)); herbicidal effect rating, R: persian speedwell [24]: 2 (Herbicidal rate of 20% or more and less than 40%); herbicidal effect grade, L: windgrass [25]: 0 (Herbicidal rate of 5% or less (almost no effect)); herbicidal effect rating, L: windgrass [26]: 0 (Herbicidal rate of 5% or less (almost no effect)); herbicidal effect rating, F: southern crabgrass [27]: 0 (Herbicidal rate of 5% or less (almost no effect)); herbicidal effect on D (Chinese sprangletop), rating 0-5 [28]: 2 (Herbicidal rate of 20% or more and less than 40%); herbicidal effect grade, R: persian speedwell [29]: 4 (Herbicidal rate of 70% or more and less than 90%); herbicidal effect rating, Q: false cleavers [30]: 3 (Herbicidal rate of 40% or more and less than 70%); herbicidal effect on H (barnyard grass), rating 0-5 [31]: 3 (Herbicidal rate of 40% or more and less than 70%); herbicidal effect on E (rice flat sedge), rating 0-5 [32]: 1 (Herbicidal rate of 5% or more and less than 20%)
2 | CCCCCCOc1ccc(-c2sc3ccccc3c2-c2c(O)c(C)nn(C)c2=O)cc1 [1-028] | 0 (Herbicidal rate of 5% or less (almost no effect)) | 4 (Herbicidal rate of 70% or more and less than 90%) | 2 (Herbicidal rate of 20% or more and less than 40%) | 2 (Herbicidal rate of 20% or more and less than 40%) | 0 (Herbicidal rate of 5% or less (almost no effect)) | 3 (Herbicidal rate of 40% or more and less than 70%) | 0 (Herbicidal rate of 5% or less (almost no effect)) | 5 (Herbicidal rate of 90% or more (almost completely withered)) | 3 (Herbicidal rate of 40% or more and less than 70%) | 0 (Herbicidal rate of 5% or less (almost no effect)) | 0 (Herbicidal rate of 5% or less (almost no effect)) | 0 (Herbicidal rate of 5% or less (almost no effect)) | 0 (Herbicidal rate of 5% or less (almost no effect)) | 4 (Herbicidal rate of 70% or more and less than 90%) | 0 (Herbicidal rate of 5% or less (almost no effect)) | 0 (Herbicidal rate of 5% or less (almost no effect)) | 0 (Herbicidal rate of 5% or less (almost no effect)) | 5 (Herbicidal rate of 90% or more (almost completely withered)) | 2 (Herbicidal rate of 20% or more and less than 40%) | 0 (Herbicidal rate of 5% or less (almost no effect)) | herbicidal effect grade, O: lambsquarters [21]: 3 (Herbicidal rate of 40% or more and less than 70%); Herbicidal effect on A: late watergrass (grade 0-5) [22]: 1 (Herbicidal rate of 5% or more and less than 20%); herbicidal effect rating, M: velvetleaf [23]: 0 (Herbicidal rate of 5% or less (almost no effect)); herbicidal effect rating, R: persian speedwell [24]: 0 (Herbicidal rate of 5% or less (almost no effect)); herbicidal effect grade, L: windgrass [25]: 3 (Herbicidal rate of 40% or more and less than 70%); herbicidal effect rating, L: windgrass [26]: 0 (Herbicidal rate of 5% or less (almost no effect)); herbicidal effect rating, F: southern crabgrass [27]: 0 (Herbicidal rate of 5% or less (almost no effect)); herbicidal effect on D (Chinese sprangletop), rating 0-5 [28]: 0 (Herbicidal rate of 5% or less (almost no effect)); herbicidal effect grade, R: persian speedwell [29]: 3 (Herbicidal rate of 40% or more and less than 70%); herbicidal effect rating, Q: false cleavers [30]: 0 (Herbicidal rate of 5% or less (almost no effect)); herbicidal effect on H (barnyard grass), rating 0-5 [31]: 3 (Herbicidal rate of 40% or more and less than 70%); herbicidal effect on E (rice flat sedge), rating 0-5 [32]: 4 (Herbicidal rate of 70% or more and less than 90%)
